Data reported in PMC5578999, “Novel quinolone chalcones targeting colchicine-binding pocket kill multidrug-resistant cancer cells by inhibiting tubulin activity and MRP1 function” (Scientific Reports, 2017).

Columns and labels:
Format in all cases: cell-based
MCF 10AT1 = test: SRB cell survival, MCF 10A isogenic lines; details: 0.39 μmol/L; MCF 10AT1 (premalignant)
Method: (§1) and MCF10AT1 cells were cultured in Dulbecco's Modified Eagle's Medium/Ham's Nutrient Mixture F-12 (DME/F12) supplemented with 10% (volume/volume) FBS , 100 μg/ml streptom ycin and 100 units/ml penicillin, antim ycotic solution, 0.5 μg/ml hydrocortisone, 10 ng/ml human epiderm al growth factor (hEGF) and 5 μg/ml insulin, whereas MCF10CA1a cell line was cultured in DM EM supplemented with 10% FBS (volume/volume). KB-3- 1, parental human epidermoid carcinoma cell line and KB-C2, an isogenic MDR1- overexpressing drug-resistant cell line, were kindl y provided b y Dr. Amit K Tiwari, the Universit y of Toledo, OH.
(§2) Parental HEK293 and M RP1- overexpressing HEK293- MRP1 isogenic cel ls were kind gifts of Dr. Susan Cole (Queen’s Universit y, Kingston, Ontario, Canada). The pacl itaxel-resistant MDA-MB-231TaxR cell line was generated in house b y culturing MDA-MB-231 cells (purchased from ATCC and authen ticated ) in the gradual l y incr easi ng con centr ations of pacl itax el until the concentration reached to 100 nM. Cell line authentication was carried out by Genetica DNA Laboratories (Burlington, NC) using a short tandem repeat (STR) profiling method (March 2015; […]
(§3) Cell viability, com binational i ndex and cell synchronization
(§4) Cell viability and proliferation were ex amined using a s ulforhodamine B (SRB) assa y as described previousl y (Hu et al., 2008). IC 50 values were calculat ed from si gmoidal dose-response cu rves gen erat ed b y at least two indepen dent ex periments , with each quadruplicate samples, using GraphPad Prism v.5.04 software (GraphPad Software, Inc, La J olla, CA). For combinational experiments on the KB -C-2 cells, CTR compounds and pacli taxel or ABT - 737/ABT-199 w ere us ed at or below IC 50 . The combinational index (CI) w as calculat ed as previousl y described (Chou, 2006). […]
(§5) Cell cycl e pro gr ession in the absence (sham) o r pr esence o f compound(s ) was determined with a Beckman Coulter Epics Elite FC 500 Flow C ytom eter as described previousl y (Romero

MCF 10A = test: SRB cell survival, MCF 10A isogenic lines; details: 0.39 μmol/L; MCF 10A (non-cancer)
Method: as §1, §2, §3, §4, §5

MCF 10CA1a = test: SRB cell survival, MCF 10A isogenic lines; details: 0.39 μmol/L; MCF 10AC1a (fully malignant)
Method: as §1, §2, §3, §4, §5

SF-295 = test: NCI-60 SRB screen
Description: (§6) Supplementary Figure l egend
(§7) 10μ M of CTR-20 was used to examine the drug’s efficac y against the NC I-60 cancer cell li nes including: six leukemia cell lines, nine non- small cell lung cancer cell lines, seven color ect al cancer cell lines, six CNS cancer cell lines, nine melanoma cell lines, seven ovari an can cer cell lines, seven ren al can cer cell lines, two prostate cancer cell lines and six breast cancer cell lines. The scr eenin g was car r ied out b y the US National Cancer Institute (NC I) us i n g a sulforhodamine B (SRB) colorimetric assay. […]
(§8) out by the NC I using five different doses of CTR -20.

UACC-257 = test: NCI-60 SRB screen
Description: as §6, §7, §8

ACHN = test: NCI-60 SRB screen; details: 1.00E-5 Molar
Description: (§9) Supplementary Table S 3: Antitumor activity of CTR -17 and CTR -20, alone or in combination […]
(§10) a Tax: paclitaxel. b mg per kg of bod y wei ght. c unit is mm 3.
as §6, §7, §8

HCT-116 = test: NCI-60 SRB screen
Description: as §9, §10, §6, §7, §8

HS 578T = test: NCI-60 SRB screen
Description: as §9, §10, §6, §7, §8

MOLT-4 = test: NCI-60 SRB screen
Description: as §9, §10, §6, §7, §8

SNB-75 = test: NCI-60 SRB screen
Description: as §9, §10, §6, §7, §8

[1] = Homo sapiens, read-out: LC50 (the source's name)

## COc1ccc2[nH]c(=O)c(/C=C/C(=O)c3ccccc3OC)cc2c1 [CTR-20, (E)-6-Methoxy-3-(3-(2-methoxyphenyl)-3-oxoprop-1-enyl) quinolin-2(1H)-one]
MCF 10AT1
  cell survival rate: 20%
MCF 10A
  cell survival rate: 75%
MCF 10CA1a
  cell survival rate: 10%
SF-295
  Log10GI50: -6.28 Molar
  Log10LC50: -4.42 Molar
  Log10TGI: -4.92 Molar
  TGI: 1.21E-5 Molar
SF-295; 1.00E-5 Molar
  Growth Percent: 8.29%
SF-295; Homo sapiens
  GI50: 0.529 µM
SF-295; [1]
  CC50: 37.6 µM
SF-295; Log10 Concentration -4.0
  Percent Growth: -93%
SF-295; Log10 Concentration -5.0
  Percent Growth: 8%
SF-295; Log10 Concentration -6.0
  Percent Growth: 33%
SF-295; Log10 Concentration -7.0
  Percent Growth: 93%
SF-295; Log10 Concentration -8.0
  Percent Growth: 89%
UACC-257
  Log10GI50: -5.86 Molar
  Log10LC50: -5.17 Molar
  Log10TGI: -5.52 Molar
  TGI: 3.05E-6 Molar
UACC-257; 1.00E-5 Molar
  Growth Percent: 37.62%
UACC-257; Homo sapiens
  GI50: 1.38 µM
UACC-257; [1]
  CC50: 6.75 µM
UACC-257; Log10 Concentration -4.0
  Percent Growth: -100%
UACC-257; Log10 Concentration -5.0
  Percent Growth: -75%
UACC-257; Log10 Concentration -6.0
  Percent Growth: 70%
UACC-257; Log10 Concentration -7.0
  Percent Growth: 101%
UACC-257; Log10 Concentration -8.0
  Percent Growth: 98%
ACHN
  Growth Percent: 38.84%
HCT-116
  Log10GI50: -6.46 Molar
  Log10LC50: -5.26 Molar
  Log10TGI: -5.83 Molar
  TGI: 1.48E-6 Molar
HCT-116; 1.00E-5 Molar
  Growth Percent: 16.04%
HCT-116; Homo sapiens
  GI50: 0.348 µM
HCT-116; [1]
  CC50: 5.48 µM
HCT-116; Log10 Concentration -4.0
  Percent Growth: -96%
HCT-116; Log10 Concentration -5.0
  Percent Growth: -73%
HCT-116; Log10 Concentration -6.0
  Percent Growth: 15%
HCT-116; Log10 Concentration -7.0
  Percent Growth: 92%
HCT-116; Log10 Concentration -8.0
  Percent Growth: 94%
HS 578T
  Log10LC50: > -4.00 Molar
  Log10TGI: -4.08 Molar
  TGI: 8.38E-5 Molar
HS 578T; 1.00E-5 Molar
  Growth Percent: 8.33%
HS 578T; [1]
  CC50: > 100 µM
HS 578T; Log10 Concentration -4.0
  Percent Growth: -8%
HS 578T; Log10 Concentration -5.0
  Percent Growth: 91%
HS 578T; Log10 Concentration -6.0
  Percent Growth: 37%
HS 578T; Log10 Concentration -7.0
  Percent Growth: 98%
HS 578T; Log10 Concentration -8.0
  Percent Growth: 96%
MOLT-4
  Log10GI50: -6.38 Molar
  Log10LC50: > -4.00 Molar
  Log10TGI: -4.57 Molar
  TGI: 2.71E-5 Molar
MOLT-4; 1.00E-5 Molar
  Growth Percent: 10.88%
MOLT-4; Homo sapiens
  GI50: 0.421 µM
MOLT-4; [1]
  CC50: > 100 µM
MOLT-4; Log10 Concentration -4.0
  Percent Growth: -12%
MOLT-4; Log10 Concentration -5.0
  Percent Growth: 9%
MOLT-4; Log10 Concentration -6.0
  Percent Growth: 21%
MOLT-4; Log10 Concentration -7.0
  Percent Growth: 98%
MOLT-4; Log10 Concentration -8.0
  Percent Growth: 97%
SNB-75
  Log10GI50: -6.33 Molar
  Log10LC50: -4.42 Molar
  Log10TGI: -4.85 Molar
  TGI: 1.42E-5 Molar
SNB-75; 1.00E-5 Molar
  Growth Percent: -11.48%
SNB-75; Homo sapiens
  GI50: 0.47 µM
SNB-75; [1]
  CC50: 37.8 µM
SNB-75; Log10 Concentration -4.0
  Percent Growth: -100%
SNB-75; Log10 Concentration -5.0
  Percent Growth: 18%
SNB-75; Log10 Concentration -6.0
  Percent Growth: 34%
SNB-75; Log10 Concentration -7.0
  Percent Growth: 82%
SNB-75; Log10 Concentration -8.0
  Percent Growth: 86%
